The structures appear in SMILES notation. Like-named read-outs stand apart in the source and are kept apart here.

In data set [1] the test system is N-methyl-N-nitrosourea-induced mammary carcinogenesis. Particulars: in vivo; cited from earlier work.
For data set [2] the following is noted: male rats, subchronic administration, cited from earlier work.
Data set [3] is described as follows: Iodination of arachidonic acid by molecular iodine (thiosulfate titration, Example 1). The data set is classed as physicochemical. Particulars: 0.01N sodium thiosulfate titration. How it is done: A stock solution of 10 mg/ml arachidonic acid in ethanol was prepared. […] A control vial was prepared that had no arachidonic acid.
An iodate/iodide solution was prepared separately by adding NaIO3 (Sigma-Aldrich, St. Louis, Mo.; part number S4007-500G) and NaI (Sigma-Aldrich, St. Louis, Mo.; part number […]) to final concentrations of 3.16 and 20.55 mM, respectively, in 0.64M sodium carbonate in water.
Vials were then titrated with 0.01N sodium thiosulfate solution until the samples went from dark blue to colorless.
Since the oxidation of iodide after acidification is diffusion controlled, the reaction of iodate with iodide is essentially instantaneous and five moles of iodide reacts with each mole of iodate to form 3 moles of molecular iodine.
The ratio of iodide to iodate used in this experiment insured that there was unreacted […] present in the solution after acidification with HCl.

The conditions of data set [4]: cited from earlier work.
A short description of data set [5]: Iodination of arachidonic acid by molecular iodine with additional iodate (thiosulfate titration, Example 3). Format: physicochemical. As for the experimental part: A stock solution of 10 mg/ml arachidonic acid in ethanol was prepared. […] A control vial was prepared that had no arachidonic acid. An iodate/iodide solution was prepared separately by adding NaIO3 (Sigma-Aldrich, St. Louis, Mo.; part number […]) and NaI (Sigma-Aldrich, St.

The nature of data set [6]: Subchronic administration to male rats, thyroid weight. The data set is classed as in vivo. Particulars: mammals; iodide vs molecular iodine.
How the values of data set [7] were obtained: An iodate/iodide solution was prepared separately by adding sodium iodate (Sigma-Aldrich, St. Louis, Mo.; part number S4007-500G) and sodium iodide (Sigma Aldrich, St. Louis, Mo.; part number 383112-100G) to final concentrations of 3.16 and 20.55 mM, respectively, in 0.64M sodium carbonate in water. One mL of the iodate/iodide solution was then added to the vials followed by 100 μl of 0.5% starch indicator.
This additional sodium iodate was added to provide additional oxidant to re-oxidize any iodide that might be formed by the iodination of arachidonic acid.
Two mL of 1N HCl was added and a visual observation of the samples was recorded. Vials were then titrated with 0.01N sodium thiosulfate solution until the samples went from dark blue to colorless.

For `II` [molecular iodine], the “formation of carcinogen induced tumors” value in data set [1] is given as “inhibits”. Besides, the thyroid weight entry in data set [2] (even at 100 mg/kg) is given as “did not affect thyroid weight”.

On to `CCCCC/C=C\C/C=C\C/C=C\C/C=C\CCCC(=O)O` [Arachidonic Acid, (5Z,8Z,11Z,14Z)-5,8,11,14-eicosatetraenoic acid], for which the Thiosulfate came out at 1.75 mL in data set [3] (0.3 mg arachidonic acid) and 1.62 mL in data set [3] (1.0 mg arachidonic acid). Further, the systemic inflammation result in data set [4] (bodybuilders, 1500 mg) is reported as “may reduce systemic inflammation”. Besides, in data set [4] (daily oral administration of up to 1500 mg), the “toxicity or safety risk” value is recorded as “no toxicity or safety risk”. For the same molecule, the carcinogenicity result in data set [4] (in vivo) was “not carcinogenic”. Besides, the “decrease of molecular iodine observed from Sample 3 to Sample 4” value in data set [5] (1 mg arachidonic acid, additional iodate) is on record as 0.50 ∞mol. In data set [5] (one mg arachidonic acid, Sample 2 vs Sample 1, unit of the source corrected), this molecule showed a molecular iodine reacted with of 1 µmol.

In the case of `I` [iodide], in data set [1], the “formation of carcinogen induced tumors” value is “not”. For the same molecule, in data set [6], the “concentration affecting thyroid weight, less than for a comparable effect from molecular iodine” value is listed as 10 fold. The thyroid weight entry in data set [2] (10 mg/kg) was “increased”.

As for `C/C=C/C=C/C(=O)O` [Sorbic Acid, sorbic acid, reference compound], the Thiosulfate in data set [7] (sample 2: 1 mg sorbic acid, no additional NaIO3) was found to be 1.45 mL; in data set [7] (sample 4: 1 mg sorbic acid, additional NaIO3 188 ∝g), 1.60 mL; in data set [5] (sample 2: 1 mg acid, no additional NaIO3), 1.70 mL; in data set [5] (sample 4: 1 mg acid, additional NaIO3 188 ∝g), 2.10 mL.

The record behind these values is patent US20190105344A1, “ORAL MOLECULAR IODINE COMPOSITION AND METHOD” (Iogen, LLC, priority 2016, published 2019).
